# Assay results from PMC3412733, “Identification and recombinant expression of anandamide hydrolyzing enzyme from Dictyostelium discoideum” (BMC Microbiology, 2012).
# Target: T1, MBP-FAAH (Dictyostelium FAAH) (Dictyostelium discoideum, UniProt Q8MMR8)
# T1 construct: gene DDB_G0275967; full length (637 residues) with N-terminal MBP and 6xHis tags kept, expressed in E. coli BL21(DE3) (pCWMalET), amylose resin purified
# T1 sequence (Q8MMR8 1-637): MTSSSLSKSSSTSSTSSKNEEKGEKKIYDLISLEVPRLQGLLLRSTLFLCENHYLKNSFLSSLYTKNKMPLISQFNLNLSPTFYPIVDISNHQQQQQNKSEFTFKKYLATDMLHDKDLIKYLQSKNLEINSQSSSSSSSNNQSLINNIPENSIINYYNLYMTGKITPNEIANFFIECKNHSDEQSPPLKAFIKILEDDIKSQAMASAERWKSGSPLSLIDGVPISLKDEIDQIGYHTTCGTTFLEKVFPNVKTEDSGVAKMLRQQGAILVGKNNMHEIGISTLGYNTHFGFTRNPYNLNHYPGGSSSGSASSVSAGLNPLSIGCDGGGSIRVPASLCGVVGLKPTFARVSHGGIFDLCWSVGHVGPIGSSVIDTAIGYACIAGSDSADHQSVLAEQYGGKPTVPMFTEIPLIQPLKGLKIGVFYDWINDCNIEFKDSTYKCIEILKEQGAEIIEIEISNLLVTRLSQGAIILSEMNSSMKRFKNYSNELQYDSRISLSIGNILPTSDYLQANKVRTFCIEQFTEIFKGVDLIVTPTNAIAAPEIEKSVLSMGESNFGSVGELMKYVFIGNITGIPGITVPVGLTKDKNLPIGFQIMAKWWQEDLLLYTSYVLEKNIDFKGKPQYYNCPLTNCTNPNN
# Experiment: CE-ES-MS of product arachidonic acid
# Assay type: biochemical
# Settings: pH 9.0, 50 mM NaCl, 10% DMSO, 37°C, 30 min
compound,measurement,value
CCCCC/C=C\C/C=C\C/C=C\C/C=C\CCCC(=O)NCCO [anandamide],CE-ES-MS of product arachidonic acid,hydrolyzed anandamide to free arachidonic acid and ethanolamine as determined by CE-ES-MS
